Laboratory results published in the SangsterLogP compilation.

assay: method code SF-AS, from Krisztina, T.; Perjesi, P.; Vámos, J. (2001). Determination of logP for biologically active chalcones and cyclic chalcone analogs by RPTLC. Journal of Planar Chromatography - Modern TLC. 14, 42-46.; conditions: pH 7.4

Structure (SMILES)	logD
O=C1C(=Cc2ccccc2)Cc2ccccc21	3.66
O=C(C=Cc1ccccc1)c1ccccc1	3.62

assay: not given; conditions: not given

Structure (SMILES)	logP
O=C1C(=Cc2ccccc2)CCCc2ccccc21	4.48
COc1ccccc1C=C1Cc2ccccc2C1=O	4.01
Cc1ccccc1C=C1CCCc2ccccc2C1=O	4.92
COc1cccc(C=CC(=O)c2ccccc2)c1	3.8
O=C1C(=Cc2ccccc2Cl)CCCc2ccccc21	5.04
CN(C)c1ccc(C=C2Cc3ccccc3C2=O)cc1	4.5
O=C1/C(=C\c2ccccc2)CCc2ccccc21	4.14
CN(C)c1ccc(C=C2CCc3ccccc3C2=O)cc1	4.91
COc1ccccc1C=C1CCCc2ccccc2C1=O	4.69
O=C1/C(=C/c2ccccc2[N+](=O)[O-])CCCc2ccccc21	4.07
COc1ccc(/C=C/C(=O)c2ccccc2)cc1	3.67
O=C1C(=Cc2ccc([N+](=O)[O-])cc2)CCCc2ccccc21	4.15
COc1ccc(C=C2CCc3ccccc3C2=O)cc1	4.32
O=C1C(=Cc2cccc(Br)c2)CCCc2ccccc21	5.35
N#Cc1ccc(/C=C/C(=O)c2ccccc2)cc1	2.93
O=C1C(=Cc2cccc([N+](=O)[O-])c2)CCCc2ccccc21	4.32

Structure (SMILES)	logP
O=C1C(=Cc2ccccc2Br)CCCc2ccccc21	5.04
O=C1C(=Cc2ccc(Br)cc2)CCCc2ccccc21	5.22
COc1cccc(/C=C2\CCc3ccccc3C2=O)c1	4.42
COc1ccc(C=C2CCCc3ccccc3C2=O)cc1	4.72
COc1cccc(C=C2Cc3ccccc3C2=O)c1	3.97
O=C1C(=Cc2ccc(Cl)cc2)CCCc2ccccc21	5.1
CN(C)c1ccc(C=C2CCCc3ccccc3C2=O)cc1	5.26
O=C1C(=Cc2cccc(F)c2)CCCc2ccccc21	4.6
Cc1cccc(C=C2CCCc3ccccc3C2=O)c1	4.98
CN(C)c1ccc(/C=C/C(=O)c2ccccc2)cc1	4.23
COc1ccccc1C=CC(=O)c1ccccc1	3.99
COc1ccccc1C=C1CCc2ccccc2C1=O	4.43
COc1ccc(C=C2Cc3ccccc3C2=O)cc1	3.91
Cc1ccc(C=C2CCCc3ccccc3C2=O)cc1	5.1
O=C1C(=Cc2ccc(F)cc2)CCCc2ccccc21	4.45
